Measurements from patent publication US5830697A, “P-glycoprotein mutant resistant to cyclosporin modulation” (The Board of Trustees of the Leland Stanford Junior …, priority 1997, dated 1998).
Like-named read-outs stand apart in the source and are kept apart here. *1 amine or outer side, *2 acyl side, *3 side chain or, on linkers, in order; H or OH if unused. Where a SMILES comes first, the peptide text is derived from it. Bridges are numbered along the chain shown (N, C = ends). Roman numbers before positions name the chains, in order. [ ]: non-standard residue; d: D form. Actinocin(9to1) = Cc1c2oc3c(C)ccc(C(=O)[*:1])c3nc-2c(C(=O)[*:2])c(N)c1=O; NMeV = CN[C@H](C(=O)O)C(C)C; Sar = CNCC(=O)O

Assays:
Assay in all cases: Growth inhibition (MTT) assay, with or without MDR modulators
[1] = tested on: MES-SA/DxP5002 (DxP) cells; details: for Fold resistance / Level of resistance of DxP cells to the cytotoxin compared with parental Dx5 (in words): DxP cells; for Dx5/DxP, fold of resistance difference in DxP cells compared with parental Dx5 cells: DxP vs Dx5
Description: Cells and Tissue Culture. […] Monolayer cultures of MES-SA cells and its variants were grown in McCoy's medium (Irvine Scientific, Santa Ana, Calif.) supplemented with 10% newborn calf serum (Gibco, Grand Island, N.Y.), 2 mM L-glutamine, and antibiotics(100 U/ml penicillin, 100 μg/ml streptomycin).
Growth Inhibition Assay. Approximately 8000 cells per well were seeded in 96 well plates and incubated with or without drugs for 72 hr at 37° C. in an atmosphere of 5% CO2. Growth inhibition was evaluated by the MTT colorimetric assay in triplicate or quadruplicate as previously described. The absorbance was measured with a ThermoMax microplate reader (Molecular Devices, Menlo Park, Calif.). […] The doubling times of MES-SA, D×5, and D×P were determined as previously described.
(§1) Reversal of MDR by Modulators. […] The modulation ratio was obtained by comparing IC50 s in the presence and absence of modulators.

MES-SA/Dx5 (Dx5) cells = assay type: cell-based, human
Description: (§2) Cells and Tissue Culture. Details of the development and characterization of the human cell line MES-SA and its MDR variant MES-SA/Dx5 (D×5), which were derived from sarcoma elements of a uterine mixed Mullerian tumor, are described in Harker and Sikic (1985) Cancer Research 45:3810-3815. MES-SA/DxP5002 (DxP) cells were derived from Dx5.05 cells (D×5 cells selected and maintained at a DOX concentration of 0.5 μM) by step-wise selection in the presence of increasing DOX concentrations (from 40 nM up to 0.5 μM) and a constant PSC 833 concentration at 2 μM over a one-year period. Monolayer cultures of MES-SA cells and its variants were grown in McCoy's medium (Irvine Scientific, Santa Ana, Calif.) supplemented with 10% newborn calf serum (Gibco, Grand Island, N.Y.), 2 mM L-glutamine, and antibiotics(100 U/ml penicillin, 100 μg/ml streptomycin).
(§3) Growth Inhibition Assay. Approximately 8000 cells per well were seeded in 96 well plates and incubated with or without drugs for 72 hr at 37° C. in an atmosphere of 5% CO2. Growth inhibition was evaluated by the MTT colorimetric assay in triplicate or quadruplicate as previously described. The absorbance was measured with a ThermoMax microplate reader (Molecular Devices, Menlo Park, Calif.). The IC50 (drug concentration resulting in 50% inhibition of MTT dye formation, compared to controls) was determined directly from semi-logarithmic dose-response curves. The doubling times of MES-SA, D×5, and D×P were determined as previously described.
as §1

MES-SA cells = assay type: cell-based, human; details: for IC50: Homo sapiens, read-out: IC50 of drug-sensitive MES-SA cells (values in parenthesis)
Description: as §2, §3, §1

[2] = no modulator, relative to MES-SA
[3] = MES-SA cells, no modulator, 72 hr MTT

SMILES	Fold resistance ([1]; +2 μM PSC 833)	Fold resistance ([1]; +6 μM Verapamil)	Fold resistance [1, 2]	Dx5/DxP, fold of resistance difference in DxP cells compared with parental Dx5 cells [1]	Fold resistance (MES-SA/Dx5 (Dx5) cells; +2 μM PSC 833)	Fold resistance (MES-SA/Dx5 (Dx5) cells; +6 μM Verapamil)	Fold resistance (MES-SA/Dx5 (Dx5) cells; [2])	IC50 (MES-SA cells; MES-SA cells, 72 hr MTT)	Fold resistance (MES-SA cells; MES-SA cells, +2 μM PSC 833)	Fold resistance (MES-SA cells; MES-SA cells, +6 μM Verapamil)	Fold resistance (MES-SA cells; [3])	Level of resistance of DxP cells to the cytotoxin compared with parental Dx5 (in words) [1]	IC50 (MES-SA cells; MES-SA, 72 h)	Fold resistance ([1]; +3 μM cyclosporin A)	Fold resistance (MES-SA/Dx5 (Dx5) cells; +3 μM cyclosporin A)	Fold resistance (MES-SA cells; MES-SA cells, +3 μM cyclosporin A)
CC[C@]1(O)C[C@H]2CN(CCc3c([nH]c4ccccc34)[C@@](C(=O)OC)(c3cc4c(cc3OC)N(C=O)[C@H]3[C@@](O)(C(=O)OC)[C@H](OC(C)=O)[C@]5(CC)C=CCN6CC[C@]43[C@@H]65)C2)C1 [Vincristine]	7 fold	3 fold	8 fold	25 fold	1 fold	7 fold	199 fold	2 nM	0.7 fold	0.3-1 fold	1 fold	–	–	–	–	–
COc1cc2c(c(OC)c1OC)-c1ccc(OC)c(=O)cc1[C@@H](NC(C)=O)CC2 [Colchicine]	–	–	–	–	–	–	–	–	–	–	–	high levels of resistance	–	–	–	–
COc1cc(NS(C)(=O)=O)ccc1Nc1c2ccccc2nc2ccccc12 [Amsacrine]	–	–	2 fold	13 fold	–	–	26 fold	100 nM	–	–	1 fold	–	–	–	–	–
COc1cc([C@@H]2c3cc4c(cc3[C@@H](O[C@@H]3O[C@@H]5CO[C@@H](c6cccs6)O[C@H]5[C@H](O)[C@H]3O)[C@H]3COC(=O)[C@H]23)OCO4)cc(OC)c1O [Teniposide]	–	–	53 fold	3 fold	–	–	135 fold	100 nM	–	–	1 fold	moderately decreased resistance	–	–	–	–
COc1cccc2c1C(=O)c1c(O)c3c(c(O)c1C2=O)C[C@@](O)(C(C)=O)C[C@@H]3O[C@H]1C[C@H](N)[C@H](O)[C@H](C)O1 [Daunorubicin]	–	–	25 fold	3 fold	–	–	75 fold	–	–	–	1 fold	slightly decreased	20 nM	–	–	–
Cc1c2oc3c(C)ccc(C(=O)N[C@@H]4C(=O)N[C@H](C(C)C)C(=O)N5CCC[C@H]5C(=O)N(C)CC(=O)N(C)[C@@H](C(C)C)C(=O)O[C@@H]4C)c3nc-2c(C(=O)N[C@@H]2C(=O)N[C@H](C(C)C)C(=O)N3CCC[C@H]3C(=O)N(C)CC(=O)N(C)[C@@H](C(C)C)C(=O)O[C@@H]2C)c(N)c1=O [D actinomycin, dactinomycin] (I: T[dV]P[Sar][NMeV] / II: T[dV]P[Sar][NMeV]; ester I:1-I:C, II:1-II:C; linker I:N-II:N via Actinocin(9to1))	–	–	1 fold	183 fold	–	–	183 fold	–	–	–	1 fold	completely restored	0.3 nM	–	–	–
CC(=O)O[C@H]1C(=O)[C@@]2(C)[C@H]([C@H](OC(=O)c3ccccc3)[C@]3(O)C[C@H](OC(=O)[C@H](O)[C@@H](NC(=O)c4ccccc4)c4ccccc4)C(C)=C1C3(C)C)[C@]1(OC(C)=O)CO[C@@H]1C[C@@H]2O [Paclitaxel]	5 fold	44 fold	100 fold	2 fold	1 fold	25 fold	175 fold	1 nM	0.3-1 fold	0.3-1 fold	1 fold	high levels of resistance	–	38 fold	13 fold	0.5-1 fold
CCC1=C[C@@H]2CN(C1)Cc1c([nH]c3ccccc13)[C@@](C(=O)OC)(c1cc3c(cc1OC)N(C)[C@H]1[C@@](O)(C(=O)OC)[C@H](OC(C)=O)[C@]4(CC)C=CCN5CC[C@]31[C@@H]54)C2 [vinorelbine]	–	–	2 fold	9 fold	–	–	17 fold	60 nM	–	–	1 fold	–	–	–	–	–
